We go through 4 compounds from article PMC11725145 (Acta Pharmaceutica Sinica. B, 2024).

A short description of data set [1]: Metabolic stability in rat liver microsomes. It counts as in vitro ADME. (In general: Liver microsomes are vesicles of endoplasmic reticulum, rich in cytochrome P450 enzymes.)
Another data set deals with PDE1 Y228A (Homo sapiens, UniProt Q14123, Y227A). In words: Inhibition of PDE1 mutant by 10a. It counts as biochemical.
In the next data set the target is PDE1 Q421A (Homo sapiens, UniProt Q14123, Q427A). In words: Inhibition of PDE1 mutant by 10a. It counts as biochemical. As to conditions: Q421A vs wild type.
Chain of PDE1 Q421A (Q14123 147-531 Q427A): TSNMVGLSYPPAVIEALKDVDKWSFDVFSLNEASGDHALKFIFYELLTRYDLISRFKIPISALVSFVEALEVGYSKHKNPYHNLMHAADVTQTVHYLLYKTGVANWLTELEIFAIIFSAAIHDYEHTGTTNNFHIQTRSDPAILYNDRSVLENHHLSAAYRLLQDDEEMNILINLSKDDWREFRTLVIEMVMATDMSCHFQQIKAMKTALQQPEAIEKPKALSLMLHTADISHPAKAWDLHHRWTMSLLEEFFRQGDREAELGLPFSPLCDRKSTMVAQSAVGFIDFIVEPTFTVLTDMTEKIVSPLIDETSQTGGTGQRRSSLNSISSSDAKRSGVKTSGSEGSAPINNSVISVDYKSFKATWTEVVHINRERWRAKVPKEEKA
The target of the next data set is PDE1 F392A (Homo sapiens, UniProt Q14123, F398A). In words: Inhibition of PDE1 mutant by 10a. It counts as biochemical.
Chain of PDE1 F392A (Q14123 147-531 F398A): as the sequence (Q14123 147-531 Q427A) above, with F252A, A281Q counted along it

Chain of PDE1 Y228A (Q14123 147-531 Y227A): as the sequence (Q14123 147-531 Q427A) above, with Y81A, A281Q counted along it

As a reminder, the half-life is the time needed for the level to fall by half in the phase considered. Low readings indicate fast loss, high ones slow loss. Take `O=C1O/C(=C\c2cc(F)ccc2OCCN2CC[C@@H](F)C2)c2cc(Cc3cccc(F)c3)[nH]c(=O)c21` [11c]: the half-life in data set [1] is 13.5 min.
Broadly, the IC50 is the point on the concentration scale where inhibition reaches its midpoint. Higher therefore signals weaker potency in that assay. Turning to `Cc1cc2c(c(=O)[nH]1)C(=O)O/C2=C\c1cc(F)ccc1OC(C)C` [compound 10a], the IC50 against PDE1 Y228A is 0.043 µM; at PDE1 F392A it was 0.231 µM. Also, the “loss of binding affinity” value is given as approximately 3 fold on PDE1 Y228A (Y228A vs wild type), 8 fold on PDE1 Q421A and 14 fold on PDE1 F392A (F392A vs wild type).
Regarding `Cc1cc2c(c(=O)[nH]1)C(=O)O/C2=C\c1cc(F)ccc1OCCN1CCOCC1` [compound 11a], in data set [1], the half-life amounted to 8 min.
Same read-out and setting: in the case of `O=C1O/C(=C\c2cc(F)ccc2OCCN2CCOCC2)c2cc(Cc3cccc(F)c3)[nH]c(=O)c21` [compound 11b] it was 29.8 min.
